The text below walks through data of patent publication US20020198373A1, “PARTICULATE DRUG CARRIERS” (priority 1997, published 2002).

The data set deals with human erythrocytes. The data set is described as follows: Haemocompatibility study (haemolysis). To be noted: erythrocyte, 5 h, relative to triton X-100 100% and PBS 0%. The format is cell-based. How it is done:
Freshly drawn human blood was centrifuged (3,000 g) to separate the red blood cells. These were washed in PBS (pH=7.4) and weighed. 3 g of the erythrocyte pellet was dispersed in 100 mL PBS (pH=7.4) and incubated for 5 h with various concentrations of GCP41, cholesterol vesicles prepared as described above or DOTAP vesicles (Sigma Chemical Co., UK). Haemolysis was assessed by centrifugation (3,000 g) to isolate the released haemoglobin, addition of 2×volume of isopropanol to the supernatant and the measurement of the absorbance (570 nm).

`CCCCCCCC/C=C\CCCCCCCC(=O)OCC(C[N+](C)(C)C)OC(=O)CCCCCCC/C=C\CCCCCCCC.COS(=O)(=O)[O-]` (centres unmarked) [DOTAP, N-[1-(2,3-dioleoyloxy)propyl]-N,N,N-trimethylammonium methylsulphate]: the “% Haemolysis (n = 3)” value reads like this: (DOTAP ratio 30) 101.4 ± 20.4%; (DOTAP ratio 300) 71.0 ± 10.6%.
